Experiment: Maximum absorption wavelength (λmax) of the illustrative compounds in solvent
Type: physicochemical

Compound | maximum absorption wavelength (λmax) (EtOAc) | maximum absorption wavelength (λmax) (MeOH)
CCCCC(CC)C(=O)Oc1ccc(OC(=O)C(CC)CCCC)c2c1SC(=C(C#N)C(=O)C(C)(C)C)S2 (stereo not drawn) [S-01] | 375 nm | –
CCCCC(CC)COc1ccc(OCC(CC)CCCC)c2c1SC(=C(C#N)C(=O)C(C)(C)C)S2 (stereo not drawn) [S-06] | 382 nm | –
CCCCC(CC)C(=O)Oc1ccc(OC(=O)C(CC)CCCC)c2c1SC(=C(C#N)C#N)S2 (stereo not drawn) [S-17] | 363 nm | –
CCCCC(CC)C(=O)Oc1ccc(OC(=O)C(CC)CCCC)c2c1SC(=C(C#N)C(N)=O)S2 (stereo not drawn) [S-20] | 357 nm | –
CCCCC(CC)COc1ccc(OCC(CC)CCCC)c2c1SC(=C(C#N)C#N)S2 (stereo not drawn) [S-26] | 369 nm | –
CC(CCOc1ccc(OCCC(C)CC(C)(C)C)c2c1SC(=C(C#N)C#N)S2)CC(C)(C)C (stereo not drawn) [S-27] | 369 nm | –
CC(CCOc1ccc(OCCC(C)CC(C)(C)C)c2c1SC(=C(C#N)C(=O)C(C)(C)C)S2)CC(C)(C)C (stereo not drawn) [S-28] | 382 nm | –
CC(C)(C)C(=O)C(C#N)=C1Sc2c(OCCO)ccc(OCCO)c2S1 [S-29] | 382 nm | –
N#CC(C#N)=C1Sc2c(OCCO)ccc(OCCO)c2S1 [S-30] | – | 369 nm

Source: patent US20110059033A1, “ULTRAVIOLET ABSORBING COMPOSITION” (FUJIFILM Corporation, priority 2009, published 2011)
